Laboratory results published in PubChem BioAssay AID1671358.

Target: Serine/threonine-protein kinase PLK3 (Homo sapiens) (UniProt Q9H4B4)
Experiment: PLK3 kinase inhibitors, dose response, biochemical, Z'-LYTE FRET, direct format, human (AID 1671358)
Details: Z'-LYTE FRET kinase assay, PLK3 phosphorylation

Sequence of Serine/threonine-protein kinase PLK3 (Homo sapiens) (Q9H4B4 whole entry, looked up): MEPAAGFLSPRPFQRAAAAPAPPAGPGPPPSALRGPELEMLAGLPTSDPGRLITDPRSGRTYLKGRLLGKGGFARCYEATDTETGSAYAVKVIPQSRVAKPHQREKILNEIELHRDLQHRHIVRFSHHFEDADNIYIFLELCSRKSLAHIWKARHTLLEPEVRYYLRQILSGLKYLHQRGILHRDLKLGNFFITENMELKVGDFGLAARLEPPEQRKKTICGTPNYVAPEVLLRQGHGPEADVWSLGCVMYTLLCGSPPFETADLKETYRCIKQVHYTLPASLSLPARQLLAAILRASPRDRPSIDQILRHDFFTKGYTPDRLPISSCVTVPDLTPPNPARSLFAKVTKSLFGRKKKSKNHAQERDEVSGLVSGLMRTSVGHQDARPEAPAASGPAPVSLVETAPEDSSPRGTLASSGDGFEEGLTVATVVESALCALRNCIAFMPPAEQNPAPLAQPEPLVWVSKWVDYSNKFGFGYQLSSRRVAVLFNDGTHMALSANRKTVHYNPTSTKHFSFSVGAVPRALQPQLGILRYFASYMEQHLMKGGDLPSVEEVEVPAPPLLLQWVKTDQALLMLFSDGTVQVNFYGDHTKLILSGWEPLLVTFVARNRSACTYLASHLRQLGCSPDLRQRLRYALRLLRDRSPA

IC50: 1850 nM
SMILES: Brc1c(Br)c(Br)c2n[nH]nc2c1Br
